{
  "source": "patent US12502384B2",
  "about": "“Pharmaceutical composition containing nitroxoline prodrug, and preparation method and application therefor” (Jiangsu Yahong Meditech Co., Ltd., priority 2020, dated 2025)",
  "test": "Stability test: impurity content by HPLC (self-control)",
  "type": "physicochemical",
  "details": "for Impurity (%)/RRT relative retention time 0.71 / Impurity (%)/RRT relative retention time 0.78 / Impurity (%)/RRT relative retention time 0.83 / Impurity (%)/RRT relative retention time 0.89 / Impurity (%)/RRT relative retention time 0.9 / Impurity (%)/RRT relative retention time 1.06 / Impurity (%)/RRT relative retention time 1.95 / Impurity (%)/RRT relative retention time 0.93 / Impurity (%)/RRT relative retention time 1.97: — = not detected",
  "protocol": "The impurity content of the immediate-release tablets obtained in Examples 1, 3, and 8 was determined respectively to evaluate the stability, and the steps were as follows:\n1. Preparation Method for Test Solution I and Test Solution II\nAbout 25 mg of a batch of nitroxoline prodrug was added to a 50 mL volumetric flask, followed by the addition of about 30 mL of acetonitrile. The resulting solution was ultrasonicated for 10 minutes, cooled to room temperature, diluted with acetonitrile to the constant volume, and mixed well. An appropriate amount of the above solution was filtered to obtain test solution I.\nAccording to the above method, another batch of nitroxoline prodrug was used to obtain test solution II.\nTest solution I was used to study the impurity content under normal temperature and different storage times (0 h, 6 h, 12 h, 18 h, 24 h), and the impurity content under 2 to 8° C. and a storage time of 24 hours.\nTest solution II was used to study the impurity content under two different stability conditions (intermediate condition of 30° C./65% RH and accelerated condition of 40° C./75% RH, as shown in Table 2).\n2. […]\n3. Preparation Method for 0.2% Self-Control Solution\n2 mL of test solution I, test solution II or test solution III was added to a 100 mL volumetric flask, and diluted with acetonitrile to the constant volume. 1 mL of the resulting solution was added to a 10 mL volumetric flask, diluted with acetonitrile to the constant volume, and mixed well to obtain the desired solution.\n4. Determination of Impurity Content\n(§1) Test solution I was placed at room temperature, and samples were collected respectively at 0 h, 6 h, 12 h, 18 h, 24 h. 0.2% self-control solution was formulated. Samples were injected respectively, and the single impurity content and total impurity content in test solution I at each time point were calculated according to the self-control.\nas §1, with “in a refrigerator (2 to 8° C.),” for “at room temperature,”, “collected” for “collected respectively”, “at” for “at 0 h, 6 h, 12 h, 18 h,”, “this” for “each”\nSamples were collected from Test solution II at 0 day, at one month under the intermediate condition (30° C./65% RH) and at one month under the accelerated condition (40° C./75% RH). 0.2% self-control solution was formulated. Samples were injected respectively, and the single impurity content and total impurity content in test solution II at this time point were calculated according to the self-control. […]",
  "key": {"[1]": {"details": "Accelerated condition (40° C./75% RH) one month"}, "[2]": {"details": "Intermediate condition (30° C./65% RH) one month"}},
  "data": [
    {"smiles": "CC(C)C(=O)N1CCC[C@H]1C(=O)OCOc1ccc([N+](=O)[O-])c2cccnc12", "note": "[nitroxoline prodrug, (S)-(5-nitroquinolin-8-yloxy)methyl 1-isopropionylpyrrolidine-2-carboxylate]", "values": [
      {"measurement": "Total impurity (%)", "setting": "[1]", "result": 1.038, "unit": "%"},
      {"measurement": "Impurity (%)/RRT relative retention time 0.71", "setting": "[1]", "result": 0.005, "unit": "%"},
      {"measurement": "Impurity (%)/RRT relative retention time 0.78", "setting": "[1]", "result": 0.792, "unit": "%"},
      {"measurement": "Impurity (%)/RRT relative retention time 0.83", "setting": "[1]", "result": 0.02, "unit": "%"},
      {"measurement": "Impurity (%)/RRT relative retention time 0.89", "setting": "[1]", "result": 0.018, "unit": "%"},
      {"measurement": "Impurity (%)/RRT relative retention time 0.9", "setting": "[1]", "result": 0.012, "unit": "%"},
      {"measurement": "Impurity (%)/RRT relative retention time 1.06", "setting": "[1]", "result": 0.173, "unit": "%"},
      {"measurement": "Impurity (%)/RRT relative retention time 1.95", "setting": "[1]", "result": 0.018, "unit": "%"},
      {"measurement": "Total impurity (%)", "setting": "[2]", "result": 0.333, "unit": "%"},
      {"measurement": "Impurity (%)/RRT relative retention time 0.78", "setting": "[2]", "result": 0.117, "unit": "%"},
      {"measurement": "Impurity (%)/RRT relative retention time 0.89", "setting": "[2]", "result": 0.018, "unit": "%"},
      {"measurement": "Impurity (%)/RRT relative retention time 0.9", "setting": "[2]", "result": 0.011, "unit": "%"},
      {"measurement": "Impurity (%)/RRT relative retention time 1.06", "setting": "[2]", "result": 0.169, "unit": "%"},
      {"measurement": "Impurity (%)/RRT relative retention time 1.95", "setting": "[2]", "result": 0.018, "unit": "%"},
      {"measurement": "Total impurity (%)", "setting": "Storage time 0 h(RT)", "result": 0.192, "unit": "%"},
      {"measurement": "Impurity (%)/RRT relative retention time 0.89", "setting": "Storage time 0 h(RT)", "result": 0.055, "unit": "%"},
      {"measurement": "Impurity (%)/RRT relative retention time 0.9", "setting": "Storage time 0 h(RT)", "result": 0.055, "unit": "%"},
      {"measurement": "Impurity (%)/RRT relative retention time 0.93", "setting": "Storage time 0 h(RT)", "result": 0.082, "unit": "%"},
      {"measurement": "Total impurity (%)", "setting": "Storage time 0 day", "result": 0.261, "unit": "%"},
      {"measurement": "Impurity (%)/RRT relative retention time 0.78", "setting": "Storage time 0 day", "result": 0.042, "unit": "%"},
      {"measurement": "Impurity (%)/RRT relative retention time 0.89", "setting": "Storage time 0 day", "result": 0.019, "unit": "%"},
      {"measurement": "Impurity (%)/RRT relative retention time 0.9", "setting": "Storage time 0 day", "result": 0.011, "unit": "%"},
      {"measurement": "Impurity (%)/RRT relative retention time 1.06", "setting": "Storage time 0 day", "result": 0.17, "unit": "%"},
      {"measurement": "Impurity (%)/RRT relative retention time 1.95", "setting": "Storage time 0 day", "result": 0.019, "unit": "%"},
      {"measurement": "Total impurity (%)", "setting": "Storage time 6 h(RT)", "result": 0.739, "unit": "%"},
      {"measurement": "Impurity (%)/RRT relative retention time 0.71", "setting": "Storage time 6 h(RT)", "result": 0.18, "unit": "%"},
      {"measurement": "Impurity (%)/RRT relative retention time 0.89", "setting": "Storage time 6 h(RT)", "result": 0.059, "unit": "%"},
      {"measurement": "Impurity (%)/RRT relative retention time 0.9", "setting": "Storage time 6 h(RT)", "result": 0.069, "unit": "%"},
      {"measurement": "Impurity (%)/RRT relative retention time 0.93", "setting": "Storage time 6 h(RT)", "result": 0.091, "unit": "%"},
      {"measurement": "Impurity (%)/RRT relative retention time 1.95", "setting": "Storage time 6 h(RT)", "result": 0.089, "unit": "%"},
      {"measurement": "Impurity (%)/RRT relative retention time 1.97", "setting": "Storage time 6 h(RT)", "result": 0.251, "unit": "%"},
      {"measurement": "Total impurity (%)", "setting": "Storage time 12 h(RT)", "result": 0.733, "unit": "%"},
      {"measurement": "Impurity (%)/RRT relative retention time 0.71", "setting": "Storage time 12 h(RT)", "result": 0.176, "unit": "%"},
      {"measurement": "Impurity (%)/RRT relative retention time 0.89", "setting": "Storage time 12 h(RT)", "result": 0.053, "unit": "%"},
      {"measurement": "Impurity (%)/RRT relative retention time 0.9", "setting": "Storage time 12 h(RT)", "result": 0.063, "unit": "%"},
      {"measurement": "Impurity (%)/RRT relative retention time 0.93", "setting": "Storage time 12 h(RT)", "result": 0.092, "unit": "%"},
      {"measurement": "Impurity (%)/RRT relative retention time 1.95", "setting": "Storage time 12 h(RT)", "result": 0.093, "unit": "%"},
      {"measurement": "Impurity (%)/RRT relative retention time 1.97", "setting": "Storage time 12 h(RT)", "result": 0.256, "unit": "%"},
      {"measurement": "Total impurity (%)", "setting": "Storage time 18 h(RT)", "result": 1.035, "unit": "%"},
      {"measurement": "Impurity (%)/RRT relative retention time 0.71", "setting": "Storage time 18 h(RT)", "result": 0.174, "unit": "%"},
      {"measurement": "Impurity (%)/RRT relative retention time 0.83", "setting": "Storage time 18 h(RT)", "result": 0.377, "unit": "%"},
      {"measurement": "Impurity (%)/RRT relative retention time 0.89", "setting": "Storage time 18 h(RT)", "result": 0.054, "unit": "%"},
      {"measurement": "Impurity (%)/RRT relative retention time 0.9", "setting": "Storage time 18 h(RT)", "result": 0.057, "unit": "%"},
      {"measurement": "Impurity (%)/RRT relative retention time 0.93", "setting": "Storage time 18 h(RT)", "result": 0.092, "unit": "%"},
      {"measurement": "Impurity (%)/RRT relative retention time 1.95", "setting": "Storage time 18 h(RT)", "result": 0.065, "unit": "%"},
      {"measurement": "Impurity (%)/RRT relative retention time 1.97", "setting": "Storage time 18 h(RT)", "result": 0.216, "unit": "%"},
      {"measurement": "Total impurity (%)", "setting": "Storage time 24 h(2-8° C.)", "result": 0.608, "unit": "%"},
      {"measurement": "Impurity (%)/RRT relative retention time 0.71", "setting": "Storage time 24 h(2-8° C.)", "result": 0.175, "unit": "%"},
      {"measurement": "Impurity (%)/RRT relative retention time 0.83", "setting": "Storage time 24 h(2-8° C.)", "result": 0.189, "unit": "%"},
      {"measurement": "Impurity (%)/RRT relative retention time 0.89", "setting": "Storage time 24 h(2-8° C.)", "result": 0.053, "unit": "%"},
      {"measurement": "Impurity (%)/RRT relative retention time 0.9", "setting": "Storage time 24 h(2-8° C.)", "result": 0.064, "unit": "%"},
      {"measurement": "Impurity (%)/RRT relative retention time 0.93", "setting": "Storage time 24 h(2-8° C.)", "result": 0.088, "unit": "%"},
      {"measurement": "Impurity (%)/RRT relative retention time 1.06", "setting": "Storage time 24 h(2-8° C.)", "result": 0.039, "unit": "%"},
      {"measurement": "Total impurity (%)", "setting": "Storage time 24 h(RT)", "result": 1.254, "unit": "%"},
      {"measurement": "Impurity (%)/RRT relative retention time 0.71", "setting": "Storage time 24 h(RT)", "result": 0.177, "unit": "%"},
      {"measurement": "Impurity (%)/RRT relative retention time 0.83", "setting": "Storage time 24 h(RT)", "result": 0.524, "unit": "%"},
      {"measurement": "Impurity (%)/RRT relative retention time 0.89", "setting": "Storage time 24 h(RT)", "result": 0.054, "unit": "%"},
      {"measurement": "Impurity (%)/RRT relative retention time 0.9", "setting": "Storage time 24 h(RT)", "result": 0.053, "unit": "%"},
      {"measurement": "Impurity (%)/RRT relative retention time 0.93", "setting": "Storage time 24 h(RT)", "result": 0.09, "unit": "%"},
      {"measurement": "Impurity (%)/RRT relative retention time 1.95", "setting": "Storage time 24 h(RT)", "result": 0.097, "unit": "%"},
      {"measurement": "Impurity (%)/RRT relative retention time 1.97", "setting": "Storage time 24 h(RT)", "result": 0.259, "unit": "%"}
    ]}
  ]
}
